Reference: PubChem BioAssay AID2046 (NMMLSC, 2009)
Active and inactive are the calls of the source. How the calls were made is not given here.

Target: Ras-related protein Rab-2A (Canis lupus familiaris) (UniProt P61105)
Assay: Rab2 wildtype GTP-binding inhibitors, SAR follow-up, biochemical, additional analogs, bead-based flow cytometry, multiplex (AID 2046)
Settings: Rab2 wt; for Ki: measured here: Ki from fitted EC50

Sequence of Ras-related protein Rab-2A (Canis lupus familiaris) (P61105 whole entry, looked up): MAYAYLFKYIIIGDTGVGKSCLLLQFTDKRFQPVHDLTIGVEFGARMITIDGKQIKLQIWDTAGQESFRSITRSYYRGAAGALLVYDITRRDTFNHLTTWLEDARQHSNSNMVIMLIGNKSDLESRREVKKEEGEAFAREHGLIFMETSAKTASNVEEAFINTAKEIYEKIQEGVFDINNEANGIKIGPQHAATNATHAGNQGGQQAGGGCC

Row | Structure (SMILES) | EC50 | Ki [µM]
1 | O=C1N=c2ccccc2=C1c1[nH]c(=S)[nH]c1O | inactive | 
2 | O=C1C(c2c(O)[nH]c3ccccc23)=Nc2ccccc21 | inactive | 
3 | O=Nc1c(-c2c(O)[nH]c3c(F)cccc23)[nH]c2ccccc12 | inactive | 
4 | O=C1C(c2c(O)[nH]c3ccc(Br)cc23)=Nc2ccccc21 | inactive | 
5 | O=Nc1c(-c2c(O)[nH]c3ccc(Br)cc23)[nH]c2ccccc12 | inactive | 4.15
6 | O=C1C(c2c(O)[nH]c3c(F)cccc23)=Nc2ccccc21 | inactive | 
7 | O=C1C(c2c(O)[nH]c3c(Br)cccc23)=Nc2ccccc21 | inactive | 
8 | O=C1C(c2c(O)[nH]c3c(Cl)cccc23)=Nc2ccccc21 | inactive | 
9 | COc1ccc2cc([C@@H](C)C(=O)O)ccc2c1 |  | 0.11
10 | O=C1N=c2ccccc2=C1c1[nH]c(=O)[nH]c1O | inactive | 
11 | O=Nc1c(-c2c(O)[nH]c3c(Br)cccc23)[nH]c2ccccc12 | inactive | 4.19
12 | O=Nc1c(-c2c(O)[nH]c3c(Cl)cccc23)[nH]c2ccccc12 | inactive | 
13 | O=Nc1c(-c2c(O)[nH]c3ccccc23)[nH]c2ccccc12 | inactive | 
